# Test results: patent publication US20220218725A1, “METHODS AND MATERIALS FOR TREATING CANCER” (Mayo Foundation for Medical Education and Research, priority 2019, published 2022)
# Key:
# [1] = tested on: JeKo-1 cells; assay: Cell cycle analysis (PI staining, flow cytometry); type: cell-based; settings: unsynchronized JeKo-1 cells
# Description: For cell cycle analysis, Jeko-1 cell line was intubated with CRM 1 inhibitors (concentrations ranging from 0.1-0.5p M) and salicylates (concentration at 3 mM) and Ly-1 cell line was intubated with CRM 1 inhibitors (concentrations ranging from 0.1-2.0 μM) and salicylates (concentration at 0.5-5 mM) for 24 and 48 hours and then fixed with 95% cold ethanol and kept at 4 C° for 24 h and subsequently underwent cell cycle analysis after PI staining and analysis was performed using BD FACS caliber flow cytometer (BD Biosciences) and FlowJo software (Tree Star).
# Cell Cycle Analysis Following incubation, cells were fixed with 70% cold ethanol and kept at 4 C° for 24 hours, followed by PI staining. Cell cycle analysis was done by using a BD FACS Caliber flow cytometer (BD Biosciences) and analyzed using FlowJo® Software.
# A double thymine block was used to synchronize cells at G1 phase of the cell cycle. JeKo-1 cells were cultured in thymidine at 2 mM in RPMI for 9 hours. Subsequently, cells were washed and cultured in RPMI media (RPMI) without additional thymidine for 12 hours and the second block of cell cycle with thymidine (2 mM) was carried out for an additional 9 hours with in RPMI. Following the double thymidine block, cells were released by re-culturing cells in normal RPMI without additional thymidine. The viability of cells at the time of release was >90%. […]
# [2] = tested on: Panc-1 cells; assay: Cell viability, Annexin V/PI assay; type: cell-based; settings: Panc-1 (Pancreatic cancer); 48 hours; KPT-330 0.1-1.0 μM, CS 1-3 mM, single agent or combination
# Description: (§1) All cell lines were obtained from commercial vendors (ATCC or DSMZ), which includes mantle cell lymphoma (MCL) cell lines: Jeko-1, Mino, JVM-2; T-cell lymphoma (TCL) cell lines: SU-DHL-1, Karpas-299, SR-786 and HUT-78; and diffuse large B-cell lymphoma cell lines: OCI-Ly1, SU-DHL-2, OCI-Ly3, SU-DHL-6; Waldenstrom macroglobulinemia (WM) cell lines: BCWM, MWCL, RPCI; sarcoma cell lines: FUJI, SW872, and pancreatic cancer cell lines: PANC-1.
# (§2) WM, TCL, and MCL cell lines were cultured in RPMI media supplemented with 10% fetal bovine serum while DLBCL cell lines were cultured in IMDM media with 10% human serum (Sigma). Pancreatic cancer and sarcoma cell lines were cultured in DMEM with 10% fetal bovine serum. All cell lines were assessed for their viability before use in experiments. Only cells with the viability of 85% or greater were used.
# [3] = tested on: RPCI cells; assay: Cell viability, Annexin V/PI assay; type: cell-based; settings: RPCI (WM); 48 hours; KPT-330 0.1-1.0 μM, CS 1-3 mM, single agent or combination
# Description: as §1, §2
# [4] = tested on: MWCL cells; assay: Cell viability, Annexin V/PI assay; type: cell-based; settings: MWCL (WM); 48 hours; KPT-330 0.1-1.0 μM, CS 1-3 mM, single agent or combination
# Description: as §1, §2
# [5] = tested on: BCWM cells; assay: Cell viability, Annexin V/PI assay; type: cell-based; settings: BCWM (WM); 48 hours; KPT-330 0.1-1.0 μM, CS 1-3 mM, single agent or combination
# Description: as §1, §2
# [6] = tested on: CMML patient-derived bone marrow sample; assay: Hematopoietic progenitor colony forming assay; type: cell-based, human; settings: assessed by counting colony forming units in methyl cellulose media, KPT-330 0.05-0.5 μM, CS 1-3 mM
# From the text: CMML patient-derived bone marrow samples were first treated with ammonium chloride to deplete red blood cells, washed in RPMI, then plated at a final concentration of 5×10^4-2×10^5 cells/mL in addition to drug(s). This solution was immediately inoculated into methylcellulose (StemCell) formulated with recombinant cytokines to support the optimal growth of erythroid progenitor cells, granulocyte-macrophage progenitor cells, and multipotent granulocyte, erythroid, macrophage and megakaryocyte progenitor cells. Plates were incubated with respective treatment conditions at 37° C. and colonies were enumerated on day 10-14.
# [7] = tested on: BT-20 cells; assay: Cell viability, Annexin V/PI assay; type: cell-based; settings: BT-20 (Breast cancer); 48 hours; KPT-330 0.1-1.0 μM, CS 1-3 mM, single agent or combination
# Description: (§8) KPT-330 purchased from Selleckchem (cat no: S7252) was dissolved in DMSO while CS (Santa Cruz, Calif.S 2016-36-6), sodium salicylate (Sigma-Aldrich, cat no: S3007), acetyl salicylate (Sigma-Aldrich, cat no: CAS 50-78-2) was diluted in PBS. […] The concentration range of KPT-330 was 0.05-1.0 μM while CS was 1-3 mM were used for ex vivo treatment and incubation time ranged from 24 hours to 72 hours.
# [8] = tested on: Peripheral T-cell lymphoma primary patient samples; assay: Viability of primary patient samples, Annexin V/PI assay; type: cell-based, human; settings: 48 h, KPT-330 0.05-0.5 μM, CS 1-3 mM
# From the text: (§3) Primary patient samples were obtained. The mononuclear cells were obtained from bone marrow, spleen, peripheral blood and lymph nodes as follows. Freshly obtained tissue (lymph node, spleen, bone marrow) was placed in mesh screen and using a syringe plunger, the tissue was pressed into a petri dish. Samples were then rinsed through the screen using measured amounts of RPMI until all tissue has been pressed through. […] Subsequently the mononuclear cells were isolated via centrifugation in the presence of ficoll and this step was again repeated following washing the cells with RPMI media.
# (§4) To isolate peripheral blood mononuclear cells (PBMCs), freshly obtained patient blood sample of patients were centrifuged in the present of ficoll and this step was repeated twice following washing the cells with PBS. Following isolating the mononuclear cells, the viability was assessed and ascertained proper viability above 80% prior to conduct respective experiments. Non-malignant cells were confirmed not to have a malignant condition by pathology review of the tissue.
# [9] = tested on: WM primary patient sample; assay: as above; type: cell-based, human; settings: 48 h, KPT-330 0.05-0.5 μM, CS 1-3 mM
# From the text: as §3, §4
# [10] = tested on: OCI-Ly19 cells; assay: Cell viability, Annexin V/PI assay; type: cell-based; settings: OCI-Ly19 (DLBCL); 48 hours; KPT-330 0.1-1.0 μM, CS 1-3 mM, single agent or combination
# Description: (§5) Cell lines were purchased from the cell line repositories ATCC (Manassas, Va.) or DSMZ (Braunschweig, Germany). These included MCL cell lines: JeKo-1, Mino; TCL cell lines: Karpas-299, SR-786; DLBCL cell lines: OCI-Ly1 (LY-1), OCI-Ly3 (LY-3), OCI-Ly19 (LY-19), SU-DHL-6 (DHL-6); MM cell lines: RPMI, U266, OPM2, Xgl, KMS2; ALL cell lines: CRL-1783; non-small cell lung cancer: NCI-H460, A549, HCC827; small cell lung cancer: H1048; sarcoma: Fuji, SW872. Cell lines were cultured according to instruction.
# (§6) KPT-330 purchased from Selleckchem (cat no: S7252) was dissolved in DMSO while CS (Santa Cruz, Calif.S 2016-36-6), sodium salicylate (Sigma-Aldrich, cat no: S3007), acetyl salicylate (Sigma-Aldrich, cat no: CAS 50-78-2) was diluted in PBS. Ketorolac (Sigma-Aldrich, cat no: 1356665), Bortezomib (Selleckchem, cat no: S1013), gemcitabine (Sigma-Aldrich, cat no: G6423), Leptomycin-B (Sigma-Aldrich, cat no: L2913-2X) and KPT-185 (Selleckchem, cat no: S7125) were dissolved in DMSO. The concentration range of KPT-330 was 0.05-1.0 μM while CS was 1-3 mM were used for ex vivo treatment and incubation time ranged from 24 hours to 72 hours. For the PARP inhibitor assay, olaparib 10 μM (SelleckChem, cat no: AZD2281 Ku-0059436) was used.
# (§7) The viability assessment for cell lines and primary patients samples were conducted with the Annexin V/PI method.
# [11] = tested on: CRL-1873 (RS4-11 cells); assay: Cell viability, Annexin V/PI assay; type: cell-based; settings: CRL-1873 (ALL); 48 hours; KPT-330 0.1-1.0 μM, CS 1-3 mM, single agent or combination
# Description: as §5, §6, §7
# [12] = tested on: OPM2 cells; assay: Cell viability, Annexin V/PI assay; type: cell-based; settings: OPM2 (MM); 48 hours; KPT-330 0.1-1.0 μM, CS 1-3 mM, single agent or combination
# Description: as §5, §6, §7
# [13] = tested on: Hs 578T cells; assay: Cell viability, Annexin V/PI assay; type: cell-based; settings: Hs 578T (Breast cancer); 48 hours; KPT-330 0.1-1.0 μM, CS 1-3 mM, single agent or combination
# Description: as §8
# [14] = tested on: JeKo-1 cells; assay: Mitotic index calculation; type: cell-based; settings: 48 hours, light microscopy
# Description: Following the incubation of respective time periods, cytospin slides were prepared and stained with Hema 3 staining on the many factors protocol. Subsequently the mitotic index was calculated by the number of mitoses evaluated in 10 high power fields (×400).
# [15] = Relapsed Peripheral T-cell lymphoma (sample of r30)
# [16] = Relapsed Peripheral T-cell lymphoma (sample of r31)
SMILES,fraction of cells in the G2/M phase [1],% viability normalized for respective controls [2],% viability normalized for respective controls [3],% viability normalized for respective controls [4],% viability normalized for respective controls [5],% viability normalized for respective controls [6],% viability normalized for respective controls [7],"% viability normalized for respective controls [8, 15]","% viability normalized for respective controls [8, 16]",% viability normalized for respective controls [9],% viability normalized for respective controls [10],% viability normalized for respective controls [11],% viability normalized for respective controls [12],% viability normalized for respective controls [13],mitotic index (MI) [14]
"C[N+](C)(C)CCO.O=C([O-])c1ccccc1O [CS, choline salicylate]",11%,90%,92%,89%,84%,53%,89%,64%,73%,79%,88%,91.5%,98%,87%,166 /10 HPF
"O=C(/C=C\n1cnc(-c2cc(C(F)(F)F)cc(C(F)(F)F)c2)n1)NNc1cnccn1 [KPT-330, (Z)-3-[3-[3,5-bis (trifluoromethyl)phenyl]-1,2,4-triazol-1-yl]-N′-pyrazin-2-ylprop-2-enehydrazide]",15%,90%,63%,65%,69%,56%,58%,73%,68%,85%,57%,79%,82%,73%,153 /10 HPF
